The record followed here is US10980889B1 (Revolution Medicines, Inc., priority 2018, dated 2021).

One assay concerns P-P70S6K (T389). The assay can be described thus: Cell based AlphaLISA assay, inhibition of P-P70S6K (T389) in MDA-MB-468 cells (mTORC1 substrate). To be noted: Homo sapiens, 4 h, AlphaLisa, two to four hours at 37° C., read-out: pIC50 for Inhibition of mTORC1 and mTORC2 Substrate Phosphorylation p-P70S6K-(T389) (converted). The protocol: (§1) Cell Based AlphaLISA Assays For Determining IC50 For Inhibition of P-Akt (S473), P-4E-BP1(T37/46), and P-P70S6K (T389) in MDA-MB-468 Cells
(§2) mTOR Kinase Cellular Assay
(§3) To measure functional activity of mTORC1 and mTORC2 in cells the phosphorylation of 4EBPT (Thr37/46) and P70S6K (Thr389), and AKT1/2/3 (Ser473) was monitored using AlphaLisa SureFire Ultra Kits (Perkin Elmer). […] Incubations were terminated by removal of the assay buffer and addition of lysis buffer provided with the assay kit. Samples were processed according to the manufacturer's instructions. The Alpha signal from the respective phosphoproteinswas measured in duplicate using a microplate reader (Envision, Perkin-Elmer or Spectramax M5, Molecular Devices). Inhibitor concentration response curves were analyzed using normalized IC50 regression curve filling with control based normalization.
For orientation: In Alpha technology, singlet oxygen from a donor bead excites a nearby acceptor bead.

The next assay concerns P-4E-BP1 (T37/46). The assay can be described thus: Cell based AlphaLISA assay, inhibition of P-4E-BP1 (T37/46) in MDA-MB-468 cells (mTORC1 substrate). As to conditions: Homo sapiens, 4 h, AlphaLisa, two to four hours at 37° C., read-out: pIC50 for Inhibition of mTORC1 and mTORC2 Substrate Phosphorylation P-4E-BP1-(T37/46) (converted). Here is the method: as §1, §2, §3
Another assay has as its system P-Akt (S473). The assay can be described thus: Cell based AlphaLISA assay, inhibition of P-Akt (S473) in MDA-MB-468 cells (mTORC2 substrate). To be noted: Homo sapiens, 4 h, AlphaLisa, two to four hours at 37° C., read-out: pIC50 for Inhibition of mTORC1 and mTORC2 Substrate Phosphorylation p-AKT1/2/3-(S473) (converted). Here is the method:
as §1, §2, §3

With `CO[C@H]1C[C@@H]2CC[C@@H](C)[C@@](O)(O2)C(=O)C(=O)N2CCCC[C@H]2C(=O)O[C@H]([C@H](C)C[C@@H]2CC[C@@H](OC(=O)NCc3cnc(N4CCN(c5ncc(C(=O)NCCOCCC(=O)N6CCN(c7ncc(C(=O)NCCCCn8nc(-c9ccc%10oc(N)nc%10c9)c9c(N)ncnc98)cn7)CC6)cn5)CC4)nc3)[C@H](OC)C2)CC(=O)[C@H](C)/C=C(\C)[C@@H](O)[C@@H](OC)C(=O)[C@H](C)C[C@H](C)/C=C/C=C/C=C/1C` [Example 111], the values for the IC50 in the assay on P-P70S6K (T389), in the assay with P-4E-BP1 (T37/46) and with P-Akt (S473) were under 1 nM, under 3.16 nM and over 1000 nM, respectively.
As for `CO[C@H]1C[C@@H]2CC[C@@H](C)[C@@](O)(O2)C(=O)C(=O)N2CCCC[C@H]2C(=O)O[C@H]([C@H](C)C[C@@H]2CC[C@@H](OC(=O)NCCOCCOCCOCCOCCOCCOCCOCCOCCC(=O)NCc3ccc(Cn4nc(-c5ccc6oc(N)nc6c5)c5c(N)ncnc54)cc3)[C@H](OC)C2)C[C@H](N=[N+]=[N-])[C@H](C)/C=C(\C)[C@@H](O)[C@@H](OC)C(=O)[C@H](C)C[C@H](C)/C=C/C=C/C=C/1C` [Example 38], the results for the IC50 in the assay on P-P70S6K (T389), in the assay on P-4E-BP1 (T37/46) and in the assay on P-Akt (S473) were under 1 nM, over 1000 nM and over 1000 nM, respectively.
For the compound `CO[C@H]1C[C@@H]2CC[C@@H](C)[C@@](O)(O2)C(=O)C(=O)N2CCCC[C@H]2C(=O)O[C@H]([C@H](C)C[C@@H]2CC[C@@H](OC(=O)NCc3cnc(N4CCN(CCOCCOCCOCCOCCC(=O)N5CCc6cc(Cn7nc(-c8ccc9oc(N)nc9c8)c8c(N)ncnc87)ccc6C5)CC4)nc3)[C@H](OC)C2)CC(=O)[C@H](C)/C=C(\C)[C@@H](O)[C@@H](OC)C(=O)[C@H](C)C[C@H](C)/C=C/C=C/C=C/1C` [Example 88], the IC50 is under 1 nM in the assay with P-P70S6K (T389), under 3.16 nM in the assay on P-4E-BP1 (T37/46) and 3.16 to 31.6 nM in the assay on P-Akt (S473).
Consider `CO[C@H]1C[C@@H]2CC[C@@H](C)[C@@](O)(O2)C(=O)C(=O)N2CCCC[C@H]2C(=O)O[C@H]([C@H](C)C[C@@H]2CC[C@@H](OC(=O)NCCOCCOCCN3C[C@@H]4C[C@H]3CN4CCOCCOCCOCCOCCC(=O)N3CCc4cc(Cn5nc(-c6ccc7oc(N)nc7c6)c6c(N)ncnc65)ccc4C3)[C@H](OC)C2)C[C@@H](O)[C@H](C)/C=C(\C)[C@@H](O)[C@@H](OC)C(=O)[C@H](C)C[C@H](C)/C=C/C=C/C=C/1C` [Example 144], for which the IC50 was under 1 nM with P-P70S6K (T389), under 3.16 nM in the assay on P-4E-BP1 (T37/46) and 3.16 to 31.6 nM with P-Akt (S473).
On the same counts, the results for `CO[C@H]1C[C@@H]2CC[C@@H](C)[C@@](O)(O2)C(=O)C(=O)N2CCCC[C@H]2C(=O)O[C@H]([C@H](C)C[C@@H]2CC[C@@H](OC(=O)NC3CCN(CC(=O)NCCOCCOCCOCCOCCOCCOCCC(=O)N4CCc5cc(Cn6nc(-c7ccc8oc(N)nc8c7)c7c(N)ncnc76)ccc5C4)CC3)[C@H](OC)C2)C[C@@H](O)[C@H](C)/C=C(\C)[C@@H](O)[C@@H](OC)C(=O)[C@H](C)C[C@H](C)/C=C/C=C/C=C/1C` [Example 98] are under 1 nM, under 3.16 nM and 3.16 to 31.6 nM.
Taken in the same sequence, the figures for `CO[C@H]1C[C@@H]2CC[C@@H](C)[C@@](O)(O2)C(=O)C(=O)N2CCCC[C@H]2C(=O)O[C@H]([C@H](C)C[C@@H]2CC[C@@H](OC(=O)NCc3cnc(N4CCN(C(=O)CCOCCN5CCN(c6ncc(C(=O)N7CCc8cc(Cn9nc(-c%10cnc%11[nH]ccc%11c%10)c%10c(N)ncnc%109)ccc8C7)cn6)CC5)CC4)nc3)[C@H](OC)C2)CC(=O)[C@H](C)/C=C(\C)[C@@H](O)[C@@H](OC)C(=O)[C@H](C)C[C@H](C)/C=C/C=C/C=C/1C` [Example 110] were 1 to 10 nM, over 1000 nM and over 1000 nM.
Consider `CO[C@H]1C[C@@H]2CC[C@@H](C)[C@@](O)(O2)C(=O)C(=O)N2CCCC[C@H]2C(=O)O[C@H]([C@H](C)C[C@@H]2CC[C@@H](OC(=O)NCc3cnc(N4CCN(C(=O)CCOCCN5CCN(c6ncc(C(=O)NCCS(=O)(=O)c7ccc(C(=O)N8CCOc9ccc(-c%10ccc(N)nc%10)cc9C8)c(C)c7)cn6)CC5)CC4)nc3)[C@H](OC)C2)CC(=O)[C@H](C)/C=C(\C)[C@@H](O)[C@@H](OC)C(=O)[C@H](C)C[C@H](C)/C=C/C=C/C=C/1C` [Example 124], for which the IC50 is under 1 nM with P-P70S6K (T389), under 3.16 nM with P-4E-BP1 (T37/46) and 3.16 to 31.6 nM in the assay with P-Akt (S473).
On the same counts, the results for `CO[C@H]1C[C@@H]2CC[C@@H](C)[C@@](O)(O2)C(=O)C(=O)N2CCCC[C@H]2C(=O)O[C@H]([C@H](C)C[C@@H]2CC[C@@H](OC(=S)NCCOCCOCCOCCOCCOCCOCCOCCOCCC(=O)NCc3ccc(Cn4nc(-c5ccc6oc(N)nc6c5)c5c(N)ncnc54)cc3)[C@H](OC)C2)C[C@@H](O)[C@H](C)/C=C(\C)[C@@H](O)[C@@H](OC)C(=O)[C@H](C)C[C@H](C)/C=C/C=C/C=C/1C` [Example 39] are under 1 nM, under 3.16 nM and under 3.16 nM.
Turning to `CO[C@H]1C[C@@H]2CC[C@@H](C)[C@@](O)(O2)C(=O)C(=O)N2CCCC[C@H]2C(=O)O[C@H]([C@H](C)C[C@@H]2CC[C@@H](OC(=O)NCc3cnc(N4CCN(C(=O)CCOCCN5CCN(c6ncc(C(=O)N7CCc8cc(Cn9nc(-c%10ccc%11oc(N)nc%11c%10)c%10c(N)ncnc%109)ccc8C7)cn6)CC5)CC4)nc3)[C@H](OC)C2)C[C@@H](O)[C@H](C)/C=C(\C)[C@@H](O)[C@@H](OC)C(=O)[C@H](C)C[C@H](C)/C=C/C=C/C=C/1C` [Example 113], the IC50 in the assay with P-P70S6K (T389) was under 1 nM; in the assay on P-4E-BP1 (T37/46), under 3.16 nM; in the assay on P-Akt (S473), 3.16 to 31.6 nM.
Taken in the same sequence, the figures for `CO[C@H]1C[C@@H]2CC[C@@H](C)[C@@](O)(O2)C(=O)C(=O)N2CCCC[C@H]2C(=O)O[C@H]([C@H](C)C[C@@H]2CC[C@@H](OC(=O)NCCOCCOCCOCCOCCOCCOCCOCCOCCC(=O)NCCS(=O)(=O)c3ccc(C(=O)N4CCOc5ccc(-c6ccc(N)nc6)cc5C4)c(C)c3)[C@H](OC)C2)CC(=O)[C@H](C)/C=C(\C)[C@@H](O)[C@@H](OC)C(=O)[C@H](C)C[C@H](C)/C=C/C=C/C=C/1C` [Example 40] were under 1 nM, under 3.16 nM and 3.16 to 31.6 nM.
Consider `CO[C@H]1C[C@@H]2CC[C@@H](C)[C@@](O)(O2)C(=O)C(=O)N2CCCC[C@H]2C(=O)O[C@H]([C@H](C)C[C@@H]2CC[C@@H](OC(=O)NCCOCCOCCN3CCN(CCOCCOCCOCCOCCC(=O)N4CCc5cc(Cn6nc(-c7ccc8oc(N)nc8c7)c7c(N)ncnc76)ccc5C4)CC3)[C@H](OC)C2)C[C@@H](O)[C@H](C)/C=C(\C)[C@@H](O)[C@@H](OC)C(=O)[C@H](C)C[C@H](C)/C=C/C=C/C=C/1C` [Example 143], for which the IC50 was under 1 nM in the assay on P-P70S6K (T389), 3.16 to 31.6 nM in the assay on P-4E-BP1 (T37/46) and over 1000 nM in the assay with P-Akt (S473).
Taken in the same sequence, the figures for `CO[C@H]1C[C@@H]2CC[C@@H](C)[C@@](O)(O2)C(=O)C(=O)N2CCCC[C@H]2C(=O)O[C@H]([C@H](C)C[C@@H]2CC[C@@H](O)[C@H](OC)C2)CC(=O)[C@H](C)/C=C(\C)[C@@H](OC(=O)NCc2cnc(N3CCN(C(=O)CCOCCN4CCN(c5ncc(C(=O)N6CCc7cc(Cn8nc(-c9ccc%10oc(N)nc%10c9)c9c(N)ncnc98)ccc7C6)cn5)CC4)CC3)nc2)[C@@H](OC)C(=O)[C@H](C)C[C@H](C)/C=C/C=C/C=C/1C` [Example 136] were under 1 nM, 3.16 to 31.6 nM and 3.16 to 31.6 nM.
